# According to US6048888A, “Method and pharmaceutical formulation for treating benign prostatic hyperplasia” (priority 1993, dated 2000):
# What was measured:
# [1] = system: melatonin binding sites in cytosol of epithelial cells from human BPH prostate tissue; test: Specific binding of 125I-melatonin to cytosol from epithelial cells of human BPH tissue; details: for Bound in Epithelial (specific binding, mean): 4 patients
# Protocol: (§1) Tissue specimens were obtained from prostate glands removed by open surgery from patients suffering from urinary obstruction due to benign prostatic hyperplasia. Epithelial and stromal cells were separated from the tissue by filtration through a stainless steel mesh. The cells were then washed with saline and collected by centrifugation (1000 g, 5 min). […] The two preparations were separately homogenized at 4° C. in 0.05 M Tris-HCl, pH 7.4. Each homogenate was spun at 100,000 g for 1 hour at 4° C. and the supernatant was removed with a Pasteur pipette. Melatonin binding was measured by incubating 300 microliters of supernatant containing ca. 20 mcg. protein with carrier-free ^125 I-melatonin at concentrations of 0-1 nM, for 1 hour at 37° C. in the presence of 0.05% Triton X-100. After the incubation period, bound ^125 I-melatonin was separated from free ^125 I-melatonin by vacuum filtration using GFF glass fiber filters saturated with polyethylenimine. Protein concentrations were measured by the method of Lowry et al (J. Biol. Chem., 193: 265, 1951) using bovine serum albumin as a standard. Non-specific binding was determined by incubating the supernatant samples with the specified concentrations of ^125 I-melatonin, but in the presence of a vast excess (10 micromolar) nonradioactive melatonin.
# [2] = system: melatonin binding sites in cytosol of stromal cells from human BPH prostate tissue; test: Specific binding of 125I-melatonin to cytosol from stromal cells of human BPH tissue; details: for Bound in Stromal (specific binding, mean): 4 patients
# Protocol: as §1, with “melatonin. These experiments were repeated four times, using specimens from four different patients, with similar results.” for “melatonin.”
# adult castrated rats = test: Experiment 1: androgen-dependent regrowth of accessory sex organs in adult castrated rats; assay type: in vivo, rat; details: testosterone propionate 1 mg/kg/day s.c. 4 days, melatonin about 40 mcg per day in drinking water
# Protocol: The effects of orally administered melatonin on androgen-dependent prostatal regrowth in adult castrated rats was investigated. Male rats (2.5 months old) were castrated under anesthesia. After 7 days, during which the average weight of the prostate decreased by ca. 60%, the rats were given daily for 4 days, a subcutaneous injection of either oil vehicle (control) or oil vehicle containing testosterone propionate (1 mg/kg body weight per day, at one hour before lights-off). […] In order to determine the weight of the relevant organs, the rats were sacrificed at the end of the 4 days following the first 7 days. […] These studies indicate a direct inhibitory effect of orally administered melatonin on prostatal growth in adult rats, contrary to the dogma that melatonin can affect the pubertal development of the rat only during the first (prepubertal) 40 days of life (Lang et al. Endocrinology,112, 1578-1584, 1983).
# [3] = system: male volunteers suffering from BPH; test: Experiment 2: placebo-controlled study of oral melatonin in male volunteers suffering from BPH; assay type: in vivo, human; details: 5 mg melatonin/day oral at about 10 p.m.; preliminary results
# aged male rats = test: Experiment 3: melatonin via drinking water for 30 days in aged male rats; assay type: in vivo, rat; details: 23-month old male rats
# Protocol: The impact of exogenously administered melatonin on central melatonin binding sites and serum testosterone in aged male rats was investigated. Thus, 23-month old male rats were treated with melatonin via the drinking water for 30 days.
# [4] = system: 8-10 month old adult rats; test: Experiment 4: long term (~18 months) melatonin via drinking water in adult rats; assay type: in vivo, rat
# Protocol: The effects on 8-10 month old adult rats, of long term (~18 months) administration of melatonin via the drinking water (4 mg./l.), on the survival, on central melatonin binding sites, and on serum testosterone, were investigated.
# [5] = system: melatonin binding sites in the rat brain; test: Experiment 5: melatonin binding sites in rat brain, sham-operated and pinealectomized rats; assay type: in vivo
# [6] = system: patient with benign prostate hypertrophy; test: Example I: BPH patient on 0.5 mg sustained release melatonin daily; assay type: in vivo, human
# Protocol: Thus, the patient's PSA level was elevated, and their prostatic acid phosphatase level was slightly above normal. […] Diagnosis after needle biopsy was benign prostate hypertrophy.
# The patient began taking 0.5 mg melatonin in the sustained release form daily at 21:00-22:00 hours on Feb. 1, 1992; on a continuing basis, i.e. medication was continued essentially indefinitely. […] Examination of the patient by ultrasonographic scanning on Oct. […] By Jun.
# BPH patients [7] = test: Example II: ultrastructural morphology of the human prostate after 30 days of melatonin; assay type: in vivo; details: 5 mg sustained release daily in the evening, 30 days prior to prostatectomy, five BPH patients
# From the text: Specimens from the prostate glands removed from the treated patients, and from control untreated patients of the same status, were fixed in glutaraldehyde immediately after the excision, embedded in "Epon" and analyzed by electron microscopy.
# BPH patients [8] = assay type: in vivo, human
# Protocol: In a clinical trial which commenced in April, 1993, 23 BPH patients were recruited and divided into two groups, one group receiving 5 mg melatonin in a sustained release formulation and the other group 50 mg melatonin in a fast release formulation, these dosages being given daily, in the evening. One patient withdrew from the study after 7 days of treatment. […] Up to August, 1993, 6 patients finished 3 months' treatment with melatonin, and the remainder had 1-2 months treatment. All patients will continue the treatment with melatonin until 6 months is completed.
# 3α reductase = details: BPH tissue samples; cited from earlier work
# 5α reductase = details: BPH tissue samples; cited from earlier work
# [9] = system: castrated rats; hypophysectomized animals; details: cited from earlier work
# male and female rats = details: oral 16-40 mcg. per day; cited from earlier work
# pinealectomized rats = details: orally administered; cited from earlier work
# human subjects = details: cited from earlier work
# [10] = 4 mg./l. in drinking water, ~18 months
# [11] = patients who had completed 3 months' treatment
# [12] = pinealectomized rats, daily injections
smiles,measurement,setting,value
COc1ccc2[nH]cc(CCNC(C)=O)c2c1 [melatonin],Kd,"[1]; 125I-melatonin probe, epithelial cell cytosol, 1 hour at 37° C., read-out: dissociation constant",0.6 nM
same,binding site density,[1]; epithelial cell cytosol,140 fmol/mg cytosol protein
same,"concentration of binding sites in stromal cytosol, factor lower than epithelial",[2]; relative to 140 fmol/mg in epithelial cytosol,approximately 10 x
same,specific binding in the stromal preparations,[2]; stromal cell cytosol,very low
same,weight / regrowth of seminal vesicles,adult castrated rats,did not significantly affect regrowth of the seminal vesicles
same,weight / regrowth of ventral prostate,adult castrated rats,prevented the testosterone-mediated regrowth of the prostate
same,weight of epididemis,adult castrated rats,had hardly any effect on the epididemis
same,urinary flow,[3],immediate improvement in urinary flow in some of the patients
same,melatonin binding sites in brain areas,aged male rats,"markedly increased melatonin binding sites in the hypothalamus, medulla-pons, thalamus and cortex"
same,serum testosterone levels vs untreated controls,aged male rats,did not significantly differ
same,suppressive effect of testosterone on melatonin binding sites in hypothalamus and hippocampus,aged male rats,attenuated a suppressive effect of testosterone on melatonin binding sites
same,melatonin binding sites in brain of aged rats,[4]; [10],significantly increased melatonin binding sites in the medulla-pons and hypothalamus
same,number of rats surviving at the age of 24-29 months,[4]; [10],markedly increased the number of rats surviving
same,serum testosterone levels vs untreated controls,[4]; [10],significantly higher
same,survival at age 27-29 months,"[4]; 4 mg./l. in drinking water, control 7 of 16",these continued to live at age 27-29 months
same,animals surviving at age 26-28 months,"[4]; 4 mg./l. in drinking water, control 8 of 16, P=0.01",13 of 15 animals
same,pneumonia,"[4]; aged survivors, 5 of 7 control survivors had severe pneumonia","either did not suffer from pneumonia, or had only very weak symptoms"
same,125I-melatonin binding in the various brain areas,"[5]; pinealectomized rats, melatonin via drinking water, any time recorded",had no effect on ^125 I-melatonin binding
same,125I-melatonin binding in hippocampus and midbrain,"[5]; sham-operated rats, melatonin via drinking water, 13 hours after lights-on",decrease in ^125 I-melatonin binding
same,urinary flow (subjective),"[6]; 0.5 mg sustained release daily at 21:00-22:00, 6 days after initiation",subjective improvement in urinary flow
same,estimated size of the prostate gland (ultrasonographic scanning),"[6]; 0.5 mg sustained release daily, Oct. 22, 1992, 55 g before and after",no change in estimated size of the prostate gland
same,residual bladder urine volume retained after two attempts to empty the bladder,"[6]; 0.5 mg sustained release daily, Oct. 22, 1992, 100 ml before treatment",zero
same,ultrastructural morphology of prostate specimens (electron microscopy),BPH patients [7],evidence for secretion of fresh collagen bundles
same,urinary flow (subjective),"BPH patients [8]; 5 mg sustained release or 50 mg fast release daily in the evening, all patients but one who withdrew",subjective improvement of urinary flow
same,decrease in the PSA level,BPH patients [8]; [11],approximately 10%
same,enlargement of the prostate gland,BPH patients [8]; [11],no further enlargement of the prostate gland
same,3α reductase activity,3α reductase,stimulate 3α reductase activity
same,5α reductase activity,5α reductase,did not affect 5α reductase activity
same,weight of testes and ventral prostate gland,[9]; hypophysectomized animals,decreases the weight of both the testes and the ventral prostate gland
same,regression of the ventral prostate gland,"[9]; subcutaneous 750 mcg., castrated rats, in presence of exogenous testosterone",enhances regression of the ventral prostate gland
same,"pubertal development, including prostate development in the males",male and female rats,delayed pubertal development of male and female rats
same,ventral prostate and seminal vesicle weight,pinealectomized rats,lowered ventral prostate and seminal vesicle weight
same,toxicity,"human subjects; human, in vivo",no significant toxicity has been observed
same,circulating testosterone levels,human subjects; humans,does not increase circulating testosterone levels
"CCC(=O)O[C@H]1CC[C@H]2[C@@H]3CCC4=CC(=O)CC[C@]4(C)[C@H]3CC[C@]12C [testosterone, testosterone propionate]",weight / regrowth of seminal vesicles,adult castrated rats,increased the weight of the seminal vesicles and ventral prostate
same,weight / regrowth of ventral prostate,adult castrated rats,increased the weight of the seminal vesicles and ventral prostate
same,weight of epididemis,adult castrated rats,had no effect on the epididemis
COc1ccc2[nH]c([125I])c(CCNC(C)=O)c2c1 [^125 I-melatonin],"Bound in Epithelial (specific binding, mean)",[1]; 125I-melatonin 0.05 nM,6.25 fmol/mg protein
same,"Bound in Epithelial (specific binding, mean)",[1]; 125I-melatonin 0.10 nM,12.5 fmol/mg protein
same,"Bound in Epithelial (specific binding, mean)",[1]; 125I-melatonin 0.20 nM,31.3 fmol/mg protein
same,"Bound in Epithelial (specific binding, mean)",[1]; 125I-melatonin 0.30 nM,45.6 fmol/mg protein
same,"Bound in Epithelial (specific binding, mean)",[1]; 125I-melatonin 0.50 nM,66.9 fmol/mg protein
same,"Bound in Epithelial (specific binding, mean)",[1]; 125I-melatonin 1.00 nM,93.1 fmol/mg protein
same,"Bound in Stromal (specific binding, mean)",[2]; 125I-melatonin 0.05 nM,0.6 fmol/mg protein
same,"Bound in Stromal (specific binding, mean)",[2]; 125I-melatonin 0.10 nM,2.5 fmol/mg protein
same,"Bound in Stromal (specific binding, mean)",[2]; 125I-melatonin 0.20 nM,3.7 fmol/mg protein
same,"Bound in Stromal (specific binding, mean)",[2]; 125I-melatonin 0.30 nM,4.3 fmol/mg protein
same,"Bound in Stromal (specific binding, mean)",[2]; 125I-melatonin 0.50 nM,8.8 fmol/mg protein
same,"Bound in Stromal (specific binding, mean)",[2]; 125I-melatonin 1.00 nM,16.2 fmol/mg protein
O=C1Nc2ccc(Cl)cc2C(c2ccccc2)=NC1O (stereo not shown) [oxazepam],melatonin binding at other times of the day,[5]; [12],did not significantly effect the binding at other times of the day
same,melatonin binding sites at 19 hours after lights-on,[5]; [12],decreased melatonin binding sites at 19 hours after lights-on
same,"densities of melatonin binding sites in brain areas, time of peak","[5]; sham-operated rats, daily injections 14 days, untreated peak at 13 hours after lights-on",higher at midnight
